Source: PMC9551036, “A selective and orally bioavailable VHL-recruiting PROTAC achieves SMARCA2 degradation in vivo” (Nature Communications, 2022)
Several values for one entry are separate records, joined by “and”; a condition that tells them apart may be missing. Equal entries are not always repeated. Where two headings read alike, the source gives them in different places.

Key:
[1] = target: T1, (Homo sapiens, UniProt P51532); assay: TR-FRET ternary complex affinity and cooperativity, SMARCA4; format: binding
T1 construct: P51532, residues 1448–1569 with additional N-terminal SM residues; GST (TEV site) (N); His6 (TEV site) (N, cleaved yes); made in house; host or cells: SMARCA4^BD: Escherichia coli BL21(DE3)
T1 sequence (P51532 1448-1569): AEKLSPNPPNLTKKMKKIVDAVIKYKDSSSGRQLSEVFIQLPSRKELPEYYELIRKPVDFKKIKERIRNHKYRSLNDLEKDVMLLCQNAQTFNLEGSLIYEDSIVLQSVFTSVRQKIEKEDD

SMARCA4 [2] = target: T2, SMARCA4 (Homo sapiens, UniProt P51532); assay: Imaging-based SMARCA4 protein assay in RKO cells; format: cell-based; parameters: endogenous in cells; host or cells: RKO, HCT116, LU99, HCC-364, HCT-15, HCC4006, SK-N-AS; details: individual replicates
T2 sequence (P51532 whole entry): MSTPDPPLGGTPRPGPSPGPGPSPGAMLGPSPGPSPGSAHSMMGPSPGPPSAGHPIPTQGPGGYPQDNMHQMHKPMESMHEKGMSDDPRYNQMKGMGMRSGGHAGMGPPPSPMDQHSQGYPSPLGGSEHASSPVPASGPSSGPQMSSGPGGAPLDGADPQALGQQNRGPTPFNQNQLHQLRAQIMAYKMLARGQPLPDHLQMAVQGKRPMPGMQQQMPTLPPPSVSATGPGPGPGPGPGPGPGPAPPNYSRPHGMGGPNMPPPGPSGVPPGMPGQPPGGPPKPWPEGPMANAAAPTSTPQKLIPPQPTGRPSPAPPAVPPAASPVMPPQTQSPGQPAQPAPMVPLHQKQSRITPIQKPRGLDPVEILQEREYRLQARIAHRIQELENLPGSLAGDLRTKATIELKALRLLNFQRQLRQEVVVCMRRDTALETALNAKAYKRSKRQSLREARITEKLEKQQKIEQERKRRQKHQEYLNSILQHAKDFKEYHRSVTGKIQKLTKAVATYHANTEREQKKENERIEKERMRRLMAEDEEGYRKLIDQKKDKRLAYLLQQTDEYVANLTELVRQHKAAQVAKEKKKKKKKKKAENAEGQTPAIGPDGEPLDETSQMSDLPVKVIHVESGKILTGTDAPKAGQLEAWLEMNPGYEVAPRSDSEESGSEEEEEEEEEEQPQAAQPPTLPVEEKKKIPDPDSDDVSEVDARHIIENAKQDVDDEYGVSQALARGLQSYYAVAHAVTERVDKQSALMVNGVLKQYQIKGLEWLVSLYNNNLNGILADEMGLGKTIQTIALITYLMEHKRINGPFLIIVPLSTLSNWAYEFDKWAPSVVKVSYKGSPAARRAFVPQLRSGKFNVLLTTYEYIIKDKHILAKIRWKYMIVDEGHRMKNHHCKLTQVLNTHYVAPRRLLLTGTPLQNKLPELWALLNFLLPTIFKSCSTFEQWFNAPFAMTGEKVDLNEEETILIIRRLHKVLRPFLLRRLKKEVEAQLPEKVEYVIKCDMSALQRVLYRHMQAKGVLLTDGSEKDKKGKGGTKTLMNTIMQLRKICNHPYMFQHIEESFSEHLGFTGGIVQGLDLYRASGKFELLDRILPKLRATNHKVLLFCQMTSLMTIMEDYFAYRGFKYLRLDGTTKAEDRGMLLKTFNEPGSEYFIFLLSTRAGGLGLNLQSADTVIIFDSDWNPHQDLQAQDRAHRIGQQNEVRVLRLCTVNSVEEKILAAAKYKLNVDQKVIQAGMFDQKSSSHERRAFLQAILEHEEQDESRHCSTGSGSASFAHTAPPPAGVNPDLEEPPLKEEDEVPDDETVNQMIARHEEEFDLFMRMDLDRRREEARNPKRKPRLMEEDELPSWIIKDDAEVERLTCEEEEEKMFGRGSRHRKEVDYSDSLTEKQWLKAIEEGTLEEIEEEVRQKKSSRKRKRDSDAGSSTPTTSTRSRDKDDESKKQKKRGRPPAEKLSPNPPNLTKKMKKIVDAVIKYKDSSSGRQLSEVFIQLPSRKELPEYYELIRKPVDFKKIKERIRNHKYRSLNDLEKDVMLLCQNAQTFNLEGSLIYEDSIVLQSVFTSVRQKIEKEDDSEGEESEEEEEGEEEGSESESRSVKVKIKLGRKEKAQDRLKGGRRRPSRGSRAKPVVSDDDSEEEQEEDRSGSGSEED
Procedure: (§1) 1250 cells per well in 60 µl medium were plated in flat bottom, poly-lysin coated 384-well plates (CellCarrier Ultra, Perkin Elmer). The next day, test compounds (10 µl of serial dilutions) and DMSO controls were diluted in DMEM medium such that the final DMSO content was <1% or were added using an ultrasound dispensing system. 4 wells were reserved for a background measurement. […] After aspirating the fixing solution, the cells were washed once with 25 µl PBS. 25 µl of blocking buffer (10% goat serum in PBS) was added and cells were incubated for 30 min, then washed once with PBS. Cells were stained with 20 µl of SMARCA2/4 primary antibody solution (Sigma #HPA029981 RRID:AB_10602406 1:1000 or Cell Signalling #52251 clone E9O6 RRID:AB_2799410 1:1000 in PBS with 10% FCS) for 2–4 h at room temperature. Cells were again washed once with PBS. […] The cell layer was then washed once with 25 µl PBS, the wells were filled with 25 µl PBS and the plates were sealed with an adhesive sheet. They were then imaged on the Opera Phoenix (mean intensity in the nucleus). Results were computed as percent of controls ((value of test compound − background)/(value of the negative control DMSO—background) multiplied by 100). EC50 values were computed using a 4-parametric logistic model.

SMARCA4 [3] = target: T2, SMARCA4; assay: SMARCA4 capillary electrophoresis protein assay in RKO cells; format: cell-based; parameters: endogenous in cells; host or cells: RKO, HCT116, LU99, HCC-364, HCT-15, HCC4006, SK-N-AS
Procedure: 130,000–200,000 cells were seeded in 24-well plates and incubated until settled down or overnight. Compounds were dissolved in DMSO and added to cells in indicated concentrations using a digital dispenser following an optional media change. Cells were incubated for 4 or 18 h as indicated. For SMARCA2/4 half-life determination, 150,000 or 200,000 cells were seeded in 24-well plates. The next day, 50 µg/ml cycloheximide (Sigma) was added and cells were incubated for 1–24 h. For SMARCA2/4 re-synthesis measurements, 200,000 cells were seeded in 24-well plates. The next day, 100 nM compound 6 was added for 4 h to degrade SMARCA2/4, and a sample was taken as baseline for normalisation. To allow re-synthesis, a VHL binder (compound 32, 25 or 50 µM) was then added for 3 or 24 h. Medium was removed, cells were washed with PBS and lysed with 80 µl Lysis Buffer (MSD Tris Lysis Buffer (#R60TX-2) + Halt Inhibitor Cocktail (100x) + Benzonase 0.5 µL/ml). Samples were frozen at −80 °C and thawed at room temperature before use. Samples were transferred to a V-bottom plate and insoluble debris was pelleted by centrifugation for 5 min at maximum speed. The supernatant was transferred to a fresh plate. Master Mix and Ladder were prepared according to manufacturer’s instructions for 12–230 kDa Wes Separation Module, 8 × 25 capillary cartridges, Protein Simple #SM-W004 with Anti-Rabbit Detection Module for Wes, Peggy Sue or Sally Sue, Protein Simple #DM-001. 4.8 µl lysate were mixed with 1.2 µl Master Mix to achieve a protein concentration of ~0.5 µg/µl. Antibodies were diluted in Antibody Diluent II (SMARCA2 Sigma #HPA029981 RRID:AB_10602406 1:25–100, SMARCA4 Cell Signalling #49360 clone D1Q7F RRID:AB_2728743 1:15–120 or Abcam #ab110641 clone EPNCIR111A RRID:AB_10861578 1:60, GAPDH Abcam #ab9485 RRID:AB_307275 1:250). Wes plates were prepared and run according to manufacturer’s instructions. Proteins were quantified with accompanying Compass Software. SMARCA2/4 protein levels were normalised to GAPDH. […] Where applicable, curves were fitted using a 4-parametric logistic model.

SMARCA2 = SMARCA2 (Homo sapiens, UniProt P51531); assay: Imaging-based SMARCA2 protein assay in RKO cells; format: cell-based; parameters: endogenous in cells; host or cells: RKO, NCI-H1568, A549, HCT116, LU99, HCC-364, HCT-15, HCC4006, SK-N-AS; details: individual replicates
SMARCA2, sequence (P51531 whole entry): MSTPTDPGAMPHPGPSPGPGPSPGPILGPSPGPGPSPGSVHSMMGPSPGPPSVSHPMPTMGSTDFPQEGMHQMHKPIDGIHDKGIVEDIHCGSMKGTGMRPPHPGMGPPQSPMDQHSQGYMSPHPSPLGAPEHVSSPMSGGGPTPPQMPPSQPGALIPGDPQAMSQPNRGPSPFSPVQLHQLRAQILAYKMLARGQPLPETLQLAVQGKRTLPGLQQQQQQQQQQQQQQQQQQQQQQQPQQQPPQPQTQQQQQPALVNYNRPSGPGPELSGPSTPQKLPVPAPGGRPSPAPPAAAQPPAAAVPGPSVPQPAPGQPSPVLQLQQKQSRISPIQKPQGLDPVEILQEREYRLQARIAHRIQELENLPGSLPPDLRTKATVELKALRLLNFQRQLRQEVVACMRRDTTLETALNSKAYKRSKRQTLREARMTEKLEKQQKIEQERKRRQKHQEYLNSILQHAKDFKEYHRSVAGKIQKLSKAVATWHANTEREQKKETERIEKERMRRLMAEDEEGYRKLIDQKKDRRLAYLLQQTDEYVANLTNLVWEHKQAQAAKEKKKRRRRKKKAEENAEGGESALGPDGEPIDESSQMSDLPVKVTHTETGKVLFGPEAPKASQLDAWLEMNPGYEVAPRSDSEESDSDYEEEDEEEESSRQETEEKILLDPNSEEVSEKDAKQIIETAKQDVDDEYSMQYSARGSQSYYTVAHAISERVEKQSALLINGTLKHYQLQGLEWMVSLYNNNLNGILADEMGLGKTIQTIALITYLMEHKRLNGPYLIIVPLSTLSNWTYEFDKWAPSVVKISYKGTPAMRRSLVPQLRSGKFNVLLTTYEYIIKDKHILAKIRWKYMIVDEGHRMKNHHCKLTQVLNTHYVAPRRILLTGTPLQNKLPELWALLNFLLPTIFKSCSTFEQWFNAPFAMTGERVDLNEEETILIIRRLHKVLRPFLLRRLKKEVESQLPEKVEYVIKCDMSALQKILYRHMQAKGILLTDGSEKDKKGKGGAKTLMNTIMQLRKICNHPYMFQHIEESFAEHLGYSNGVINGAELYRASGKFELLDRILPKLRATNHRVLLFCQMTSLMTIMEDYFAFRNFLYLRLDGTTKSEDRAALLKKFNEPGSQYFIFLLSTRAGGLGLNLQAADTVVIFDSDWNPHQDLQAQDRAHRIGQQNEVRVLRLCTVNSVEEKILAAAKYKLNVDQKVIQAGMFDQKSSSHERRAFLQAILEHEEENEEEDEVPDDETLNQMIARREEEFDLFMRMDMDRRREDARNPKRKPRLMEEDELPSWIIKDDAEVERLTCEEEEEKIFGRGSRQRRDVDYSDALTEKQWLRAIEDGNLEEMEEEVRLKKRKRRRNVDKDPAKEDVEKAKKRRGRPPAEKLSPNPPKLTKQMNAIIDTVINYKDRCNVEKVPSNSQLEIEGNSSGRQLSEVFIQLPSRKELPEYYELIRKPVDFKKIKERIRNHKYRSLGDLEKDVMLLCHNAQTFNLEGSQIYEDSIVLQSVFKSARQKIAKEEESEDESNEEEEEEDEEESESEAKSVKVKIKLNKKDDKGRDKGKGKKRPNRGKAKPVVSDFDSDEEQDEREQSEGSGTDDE
Procedure: as §1, with “Cells were stained with 20 µl of SMARCA2/4 primary antibody solution (Sigma #HPA029981 RRID:AB_10602406 1:1000 or Cell Signalling #52251 clone E9O6 RRID:AB_2799410 1:1000 in PBS with 10% FCS) for 2–4 h at room temperature.” left out, “Results were computed as percent of controls ((value of test compound − background)/(value of the negative control DMSO—background) multiplied by 100).” left out

[4] = TR-FRET competition for SMARCA4BD, without VCB, mean ± SD, read-out: TR-FRET SMARCA4BD EC50
[5] = binary, PROTAC alone, individual replicates, read-out: SMARCA4 BD EC50
[6] = 4h, read-out: RKO (4h) SMARCA4 DC50
[7] = 18h, read-out: RKO (18h) SMARCA4 DC50
[8] = 4h, read-out: RKO (4h) SMARCA2 DC50
[9] = 18h, read-out: RKO (18h) SMARCA2 DC50

| SMILES | EC50 [1, 4] [µM] | EC50 [1, 5] | DC50 (SMARCA4 [2]; [6]) | DC50 (SMARCA4 [2]; [7]) | DC50 (SMARCA4 [3]; RKO (4 h), mean ± SD) [µM] | SMARCA4 Dmax (SMARCA4 [3]; RKO (4 h), mean ± SD) [%] | DC50 (SMARCA4 [3]; RKO (18 h), mean ± SD) [µM] | SMARCA4 Dmax (SMARCA4 [3]; RKO (18 h), mean ± SD) [%] | DC50 (SMARCA2; [8]) | DC50 (SMARCA2; [9]) | also measured |
| --- | --- | --- | --- | --- | --- | --- | --- | --- | --- | --- | --- |
| Cc1ncsc1-c1ccc(CNC(=O)[C@@H]2C[C@@H](O)CN2C(=O)[C@@H](NC(=O)C2(F)CC2)C(C)(C)C)c(OCCOCCOCCOCCN2CCC(c3ccc4c(c3)n(C3CCCC3)c3nc(=O)c5c(Br)cccc5n43)CC2)c1 [compound 22] | 0.813 ± 0.126 | 0.659 µM and 0.965 µM and 0.837 µM and 0.819 µM | 0.0328 µM and 0.118 µM and 0.04 µM | 0.0399 µM and 0.168 µM and 0.0691 µM | 0.054 ± 0.047 | 84 ± 1 | 0.077 ± 0.067 | 89 ± 5 | 0.0858 µM and 0.4 µM and 0.157 µM | 0.0974 µM and 0.276 µM and 0.121 µM |  |
| Cc1ncsc1-c1ccc([C@H](CC[C@@H](C)CCN2CCC(c3ccc4c(c3)n(C3CCCC3)c3nc(=O)c5c(Br)cccc5n43)CC2)NC(=O)[C@@H]2C[C@@H](O)CN2C(=O)[C@@H](NC(=O)C2(F)CC2)C(C)(C)C)cc1 [compound 29] | 0.416 ± 0.177 | 0.272 µM and 0.625 µM and 0.423 µM | 0.0111 µM and 0.0135 µM and 0.0124 µM and 0.0249 µM | 6.86 nM and 10.4 nM (2×) and 14.2 nM and 15.3 nM and 14 nM | 0.015 ± 0.006 | 68 ± 6 | 0.011 ± 0.003 | 87 ± 6 | 0.00156 µM and 0.00215 µM and 0.00132 µM and 0.00346 µM | 0.000877 µM and 0.000998 µM and 0.000942 µM and 0.000753 µM |  |
| Cc1ncsc1-c1ccc(C(CCC(C)CCN2CCC(c3ccc4c(c3)n(C3CCCC3)c3nc(=O)c5c(Br)cccc5n43)CC2)NC(=O)C2CC(O)CN2C(=O)C(NC(=O)C2(F)CC2)C(C)(C)C)cc1 (stereo not shown) [ACBI2] | 0.314 ± 0.121 | 0.308 µM and 0.459 µM and 0.22 µM |  | 0.0377 µM and 0.0303 µM and 0.0307 µM and 0.0309 µM and 0.0262 µM and 0.0335 µM and 0.0252 µM and 0.0308 µM and 0.0634 µM and 0.03 µM and 0.0291 µM and 0.0277 µM | > 25 |  |  |  | 0.00355 µM and 0.00163 µM and 0.00177 µM and 0.00345 µM and 0.00401 µM and 0.00403 µM and 0.00311 µM | 0.002 µM and 0.00228 µM and 0.00137 µM and 0.00163 µM and 0.00115 µM and 0.00122 µM and 0.00153 µM and 0.000997 µM and 0.00143 µM and 0.000892 µM | DC50 (SMARCA4 [3]; RKO cells, time not stated at the place (Supplementary Data 2)): 0.032 µM; Dmax (SMARCA4 [3]; RKO, RKO (18 h), mean ± SD): 67 ± 8%; Bottom (% protein remaining, four-parameter fit) (SMARCA4 [3]; RKO, SM4): 39.28%; Top (% protein remaining, four-parameter fit) (SMARCA4 [3]; RKO, SM4): 143.4%; % protein remaining (SMARCA4 [3]; RKO, SM4, conc 9.54e-12 mol/l): 113.734% and 126.165%; % protein remaining (SMARCA4 [3]; RKO, SM4, conc 3.81e-11 mol/l): 121.614% and 148.911%; % protein remaining (SMARCA4 [3]; RKO, SM4, conc 1.53e-10 mol/l): 135.787% and 142.842%; % protein remaining (SMARCA4 [3]; RKO, SM4, conc 6.1e-10 mol/l): 143.182% and 145.479%; % protein remaining (SMARCA4 [3]; RKO, SM4, conc 2.44e-9 mol/l): 149.21% and 160.401%; % protein remaining (SMARCA4 [3]; RKO, SM4, conc 9.77e-9 mol/l): 171.8% and 162.178%; % protein remaining (SMARCA4 [3]; RKO, SM4, conc 3.91e-8 mol/l): 85.9345% and 100.013%; % protein remaining (SMARCA4 [3]; RKO, SM4, conc 1.56e-7 mol/l): 33.2702% and 37.8218%; % protein remaining (SMARCA4 [3]; RKO, SM4, conc 6.25e-7 mol/l): 30.6123% and 41.0571%; % protein remaining (SMARCA4 [3]; RKO, SM4, conc 2.5e-6 mol/l): 28.0108%; % protein remaining (SMARCA4 [3]; RKO, SM4, conc 1e-5 mol/l): 64.9119% |
| CN1CCN(c2nc(=O)c3ccccc3o2)CC1 [compound 14] |  | > 10 µM | > 25 µM | > 25 µM | > 25 |  | > 25 |  | > 25 µM | > 25 µM |  |
| CN1CCN(c2nc(=O)c3c(Cl)cccc3o2)CC1 [compound 13] |  | > 10 µM | > 25 µM | > 25 µM | > 25 |  | > 25 |  | > 25 µM | > 25 µM |  |
